Entries after “also recorded” stand apart in the source; their conditions may differ.
Legend:
hRARα, β and γ LBDs = test: ESI-MS in non-denaturing conditions, binding to RAR LBD isotypes; parameters: species or system human; conditions: 5-fold molar excess of ligand
Procedure: (§1) cDNAs encoding hRXRα LBD (223-462), hRARα LBD (153-421), hRARBβ LBD (169-414) and hRARγ LBD (178-423) were cloned into pET28b vector to generate N-terminal Histag fusion proteins. Purification was carried out as previously described [Lippert W P et al. 2009, Osz J, et al. 2012], including a metal affinity chromatography and a gel filtration. For details of sample preparation and ESI-MS analyses see below.
cDNAs encoding hRXRαLBD (223-462), hRARαLBD (153-421), hRARβLBD (169-414) and hRARγ LBD (178-423) were cloned into pET28b vector to generate N-terminal His-tag fusion proteins. Purification was carried out as previously described [Lippert W P et al. 2009, Osz J, et al. 2012], including a metal affinity chromatography and a gel filtration. Prior to ESI-MS analysis, samples were desalted on Zeba Spin desalting columns (Pierce) in 150 mM ammonium acetate (pH 8.0). ESI-MS measurements were performed on an electrospray time-of-flight mass spectrometer (MicrOTOF, Bruker Daltonics). Purity and homogeneity of the proteins were verified by mass spectrometry in denaturing conditions (samples were diluted at 2 pmol/μl in a 1:1 water-acetonitrile mixture (v/v) acidified with 1% formic acid). The mass measurements of the noncovalent complexes were performed in ammonium acetate (200 mM; pH 8.0). […]

[1] = tested on: differentiating monocyte-derived human dendritic cells; test: DNA microarray in differentiating monocyte-derived dendritic cells; format: cell-based
Procedure: The generation and transcriptional analysis of differentiating DCs were performed as described previously [Szeles L et al. 2010]. Microarray data were deposited into the Gene Expression Omnibus database under accession no. GSE48573.
The generation and analysis of differentiating DCs were performed as described previously [Szeles L et al. 2010] with minor modifications. Briefly, human monocytes were isolated from healthy volunteer's buffy coat, obtained with a Regional Ethical Board permit from the Regional Blood Bank and isolated by Ficoll gradient centrifugation followed by immunomagnetic cell separation, and were cultured in the presence of GM-CSF and IL-4. Differentiating DCs were stimulated 18 h after […] by various agonists for 12 h. The ligands were used in the following concentrations: 10 μM (R)-9CDHRA, 10 μM (S)-9CDHRA, 1 μM 9cisRA, 100 nM LG100268, 1 μM GW3965, 1 μM Rosiglitazone (RSG), 1 μM GW1516, 100 nM AM580. Experiments were performed in biological triplicates. Samples were processed and hybridized to Human Genome U133 Plus 2.0 Arrays. Data were analysed using to GeneSpring 12.6.1 software. In detail, normalization was performed using RMA summarization algorithm. […] Microarray data were deposited into the Gene Expression Omnibus database under accession no. GSE48573.

hRXRα LBD = target: T1, hRXRα LBD (Homo sapiens, UniProt P19793); test: ESI-MS in non-denaturing conditions, binding to RXR LBD; parameters: cDNAs encoding hRXRα LBD (223-462); His-tag (N); made in house; conditions: 5-fold molar excess of ligand
T1 sequence (P19793 223-462): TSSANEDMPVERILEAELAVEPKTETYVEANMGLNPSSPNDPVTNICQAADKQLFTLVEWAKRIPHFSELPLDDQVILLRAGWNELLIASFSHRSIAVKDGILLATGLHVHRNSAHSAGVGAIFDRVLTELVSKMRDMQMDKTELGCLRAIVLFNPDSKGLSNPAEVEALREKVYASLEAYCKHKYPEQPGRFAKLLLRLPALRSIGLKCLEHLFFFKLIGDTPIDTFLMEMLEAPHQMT
Procedure: as §1
cDNAs encoding hRXRαLBD (223-462), hRARαLBD (153-421), hRARβLBD (169-414) and hRARγ LBD (178-423) were cloned into pET28b vector to generate N-terminal His-tag fusion proteins. Purification was carried out as previously described [Lippert W P et al. 2009, Osz J, et al. 2012], including a metal affinity chromatography and a gel filtration. Prior to ESI-MS analysis, samples were desalted on Zeba Spin desalting columns (Pierce) in 150 mM ammonium acetate (pH 8.0). ESI-MS measurements were performed on an electrospray time-of-flight mass spectrometer (MicrOTOF, Bruker Daltonics). Purity and homogeneity of the proteins were verified by mass spectrometry in denaturing conditions (samples were diluted at 2 pmol/μl in a 1:1 water-acetonitrile mixture (v/v) acidified with 1% formic acid). The mass measurements of the noncovalent complexes were performed in ammonium acetate (200 mM; pH 8.0). Samples were diluted to 8 pmol/ml in the previous buffer and continuously infused into the ESI ion source at a flow rate of […] through a Harvard syringe pump (Harvard Apparatus model 11). A careful optimization of the interface parameters was performed to obtain the best sensitivity and spectrum quality without affecting the noncovalent complexes stability. In particular, the capillary exit (CE) ranged from 60 to 150 V with a vacuum interface pressure of 2.3 mbar and was set to 80 V. For ligand-interaction analysis, ligands were added to the proteins in a 5-fold molar excess.

[2] = tested on: Rbp1−/−, Rxrγ−/− and WT mice; test: Forced swim test after acute treatment; format: in vivo, mouse; conditions: Rbp1−/− mice, acute i.p. treatment 5-6 h before the test
Procedure: (§2) The forced swim paradigm was carried out between 1 pm and 4 pm in a 3-litre glass beaker half-filled with water at 22-23° C. (the water depth was 17 cm). All mice were tested only once in this task. To this end, each mouse was lowered gently into the water and the time of immobility was scored during a 6-minute testing period. The mouse was judged immobile when it floated in an upright position and made only small movements to keep its head above the water. After 6 min, the mouse was taken out of the water, left to dry under a red light lamp and returned to its home cage. The immobility scores of each animal were used as an index of despair behavior.
(§3) Vehicle treatments consisted of 3% ethanol and 3% DMSO solution in sunflower oil. Treatments were administered by intraperitoneal injections at volume/weight ratio 3 ml/kg between 8-10 am and 5-6 h before the test as previously validated (Wietrzych-Schindler M, 2011).
as §2, with “paradigm (Dalvi and Lucki, 1999)” for “paradigm”, “2-litre” for “3-litre”

[3] = tested on: Rbp1−/−, Rxrγ−/− and WT mice; test: Delayed non-match to place (DNMTP) working memory task in the T-maze; format: in vivo, mouse; conditions: ITI of 6 min
Procedure: Behaviorally naïve groups of mice were tested in the DNMTP (delayed non-match to place) procedure in the T-maze according to a protocol previously described (Wietrzych et al., 2005), with modifications to facilitate pharmacological tests (Wietrzych-Schindler et al., 2011). Spontaneous alternation was evaluated in the Ymaze apparatus according to protocol described in detail below.
Specifically, in the present protocol, animals were first trained for 10 consecutive days with minimal inter-trial intervals (ITI) of about 15 sec, which was necessary to attain the criterion of 90% or more of correct choices during […] consecutive days (days 9-10). After this period ITI was increased semi-randomly by blocks of 3-6 min during 5 consecutive days (days 11-15 indicated) to determine “test ITI” for each animal, which was defined as the shortest ITI at which mice perform at chance level. From day 16 mice were tested using corresponding “test ITI” delays following vehicle injection on the day 16 (to test for the effect of vehicle alone) and following 9CDHROL (40 mg/kg) injection on day 17. Three mice were excluded from testing since their latency to choose the arm during the retention phase exceeded 3 min in more than one trial/day on three consecutive days (exclusion criterion). On the day 18 mice were again injected (IP) with 9CDHROL (40 mg/kg) and 9 hours later sacrificed for chemical analyses. Mice which received vehicle injections on three consecutive days were used as vehicle-treated controls for analyses of 9CDHROL metabolism. An additional group of 3 naïve mice was also injected with 9CDHROL (40 mg/kg) to test for 9CDHROL metabolism following acute treatment.
In this variant, animals were first trained for 9 consecutive days of with minimal inter-trial intervals (ITI) of about 15 sec, which was necessary to attain the criterion of 90% or more of correct choices during three consecutive days (days 7-9). After this period ITI was increased semi-randomly to 180, 360, 720 and for some WT mice also 1080 seconds so that each animal was tested 6 times with each interval during four consecutive days (days 10-13 indicated). From day 13 mice were tested only twice per week beginning with training session on day one (with minimal, 15 sec ITIs) and testing pharmacological treatments on the second day. Only one pharmacological treatment was tested every 7 days. To test pro-mnemonic activities of UVI2108 and (R)-9CDHRA inventors used a minimal ITI, at which mice performed at chance level (50%) and which was 6 min for the Rbp1−/− or Rxrγ−/− groups and 12 min for most WT mice with exception of two mice tested at 18 min. Four mice (two wild types and one of each knockout line), were excluded from testing since their latency to choose the arm during the retention phase exceeded 3 min in more than one trial/day on three consecutive days (exclusion criterion).
For behavioral analysis, 9CDHROL and 9CDHBC were dissolved in ethanol, and then mixed with sunflower oil, so that the final solution contained 3% ethanol. Vehicle treatments consisted of 3% ethanol solution in sunflower oil. For memory studies treatments with 9CDHRA were administered by intraperitoneal injections at volume/weight ratio 3 ml/kg at 7 am and 7 hours before the beginning of testing. For tests with animal model of chronic social defeat, different treatments were administered by intraperitoneal injections at volume/weight ratio 3 ml/kg at 10 mg/kg for each substance between 5-6 pm every second day of stress protocol immediately after the stress session starting from day 1 of the stress protocol.
as §3

Rbp1−/− and Rxrγ−/− mice = test: Y-maze spontaneous alternation; format: in vivo, mouse; conditions: 5-6 hours prior to testing
Procedure: The Y-maze apparatus and the procedure were as previously described (Wietrzych et al., 2005). Briefly, each mouse was placed at the end of one arm and allowed to explore freely the apparatus for 5 min, with the experimenter out of the animal's sight. Spontaneous alternation performance (SAP) was assessed visually by scoring the pattern of entries into each arm and expressed as a percentage of total number of entries, discounting the first two visits. Total entries were scored as an index of ambulatory activity in the Y-maze, but none of tested mice had to be excluded due to low locomotor performance (score below 9 entries).
as §3

[4] = Mouse oral supplementation, retinoid levels in serum, brain and liver (LC-MS); format: in vivo; conditions: mice
Procedure: For metabolic analyses ATROL, 9CDHROL, 9CDHBC and control solutions were prepared as described above. Single per os application of the dose of 40 mg/kg of each substance was used to treat mice in the evening and samples were collected 11 h later in the light protected conditions, weighted, frozen in liquid nitrogen and stored at −80° C. until analyses. Serum was prepared and immediately stored in brown vials at −80° C., till further analysis.
Accordingly, for sample preparation 100 mg of the material (if samples were under 100 mg, water was added up to the used standard weight: 100 mg) or 100 μl serum was diluted with a threefold volume of isopropanol, the tissues were minced by scissors, vortexed for 10 seconds, put in a ultrasonic bath for 5 minutes, shaken for 6 minutes and centrifuged at 13000 rpm in a Heraeus BIOFUGE Fresco at +4° C. […] The dried extracts were resuspended with 30 μl of methanol—MTBE (50-50) and transferred into the autosampler and 10 μl subsequently analysed.
Mouse brain samples were prepared according to the procedure described above. Briefly, after single per os application of the dose of 40 mg/kg of 9CDHROL (or other cited substances) in the evening mice were sacrificed after 11 hours and tissues samples including brain were dissected under light-protection conditions, weighted, frozen in liquid nitrogen and stored at −80° C. until analyses. Serum was prepared and immediately stored in brown vials at −80° C., till further analysis.
For mouse supplementation experiments we treated n=6 mice per os with 40 mg/kg bw 9CDHROL and 11 h after the treatment the mice were killed and blood, brain and liver was taken. After centrifugation of the drawn blood, serum was obtained.

[5] = tested on: oligodendrocytes cell line 158N; test: Metabolic conversion in mouse oligodendrocytes cell culture (LC-MS); format: in vitro ADME
Procedure: Normal immortalized oligodendrocytes cell line 158N was cultured as previously reported (Feutz et al., 2001). Expediently, cells were cultured in supplemented with 5% calf serum (Invitrogen, France). When cells attained 70% of confluency they were treated with 10^−2 M ethanol solution of one of the following compounds: 9CDHROL, 9CDHROL-acetate, 9CDHRA-ethyl ester. 9CDHRA and ethanol as controls, vehicle treatment. 18 h after treatment cells were collected in amber Eppendorf tubes and stored at −80° C. until analyses. Treatments and cell collection were carried out in light limited conditions to avoid photolysis of retinoids.
(§4) In a slight variant of the method, after reaching confluency of 80% cells were treated with 9CDHROL, 9CDH-retinyl ester (acetate, 9CDHROL-ES), 9CDHRA, 9CDH-retinoyl ester, (ethyl ester, 9CDHRA-ES), ATROL, 9CDHBC, 9CBC and ATBC at a concentration of 10^−6 M or ethanol at corresponding concentration was used as control vehicle treatment. Cells were harvested 18 hours later, centrifuged, weighted, frozen in liquid nitrogen and stored at −80° C. until analyses.
(§5) High performance liquid chromatography mass spectrometry (LC-MS) was carried out as described in Example 4.

[6] = tested on: human oligodendrocytes cell cultures; test: Metabolic conversion in human oligodendrocytes cell culture (HPLC-MS); format: in vitro ADME; conditions: 10^−6M, n=3
Procedure: as §4, §5
9CDHRA levels including standard deviation in human oligodendrocytes cultures were assessed using HPLC-MS analysis after control treatment using ethanol (CTRL), as well as ATROL treatment (ATROL), 9CBC treatments (9CBC), ATBC treatments (ATBC), 9CDHBC treatment (9CDHBC), 9CDHROL treatments (9CDHROL), 9CDHROL-ester treatments (9CDHROL-ES), 9CDHRA treatments (9CDHRA) or 9CDHRA-ester treatments (9CDHRA-ES), each with 10^−6M concentration and n=3 (FIG. 14D).

[7] = per os 40 mg/kg, 11 h after treatment

SMILES: CC1=C(/C=C/C(C)=C\C=C\[C@@H](C)CC(=O)O)C(C)(C)CCC1 [(S)-9CDHRA, (9Z,13S)-13,14-Dihydroretinoic Acid]
- binding to RAR LBD isotypes in ESI-MS (hRARα, β and γ LBDs): bind to all RAR LBD isotypes
- overlap in transcriptional changes with 9CRA [1]: about 80%
- expression of genes that are direct targets of RXR permissive heterodimers (LXR-RXR, PPAR-RXR) and RAR-RXR ([1]; 9CDHRA 10 μM, 9CRA 1 μM, LG268 100 nM, GW3965 1 μM, RSG 1 μM, GW1516 1 μM, AM580 100 nM): induced the expression of genes
- binding to RXR LBD in ESI-MS (hRXRα LBD): lower affinity

SMILES: CC1=C(/C=C/C(C)=C/C=C/C(C)=C/C(=O)O)C(C)(C)CCC1 [ATRA, all-trans-retinoic acid]
- immobility (despair) in the forced swim test [2]: reduced significantly immobility time
- working memory performance in DNMTP task ([3]; Rbp1−/− mice, acute treatment, (R)-9CDHRA 1 or 2 mg/kg): reversed memory deficits
- working memory performance in DNMTP task ([3]; Rxrγ−/− mice): remained ineffective
- working memory in spontaneous alternation in the Y-maze (Rbp1−/− and Rxrγ−/− mice; Rbp1−/− mice, ATRA 5 mg/kg, UVI2108 1 mg/kg, MA 5 mg/kg, DHA 1 mg/kg, TTNPB 5 mg/kg): normalised; also recorded: pro-mnemonic effects
- working memory in spontaneous alternation in the Y-maze (Rbp1−/− and Rxrγ−/− mice; Rxrγ−/− mice, same doses): not

SMILES: CC1=C(/C=C/C(C)=C/C=C/C(C)=C/CO)C(C)(C)CCC1 [ATROL, all-trans-retinol, reference compound]
- ATROL levels in mouse organs after treatment ([4]; oral gavage 40 mg/kg): strongly and significantly increased ATROL levels
- 9CDHRA levels in serum, brain and liver after treatment (conversion to 9CDHRA) [4, 7]: significantly increased levels in brain and liver
- 9CDHROL levels in serum, brain and liver after treatment [4, 7]: did not increase
- ATROL levels in cells after treatment ([5]; 10^−6M): strongly and significantly increased ATROL levels
- 9CDHROL levels in cells after treatment ([5]; 10^−6 M, 18 hours): no or just a weak increase; also recorded: weak significant increase
- conversion to 9CDHRA ([5]; data not shown): not converted to 9CDHRA
- 9CDHRA levels in cells after treatment (metabolism / accumulation) [6]: not converted to 9CDHRA

— patent publication US12029715B2, “Precursor compounds for providing retinoids of the vitamin A5 pathway and uses thereof” (UNIVERSITY OF DEBRECEN, priority 2015, dated 2024)
